Data on five compounds can be found in publication PMC12785325, “Edible Yellow Mealworm-Derived Antidiabetic Peptides: Dual Modulation of α-Glucosidase and Dipeptidyl-Peptidase IV Inhibition Revealed by Integrated Proteomics, Bioassays, and Molecular Docking Analysis” (Foods, 2025).

Where a SMILES comes first, the peptide text is derived from it. Where only a bound is given, the exact number is not on record here.

In one data set the target is T1, DPP-IV (Homo sapiens, UniProt P27487).
T1 construct: purchased Abcam (Cambridge, UK)
T1 sequence (P27487 whole entry): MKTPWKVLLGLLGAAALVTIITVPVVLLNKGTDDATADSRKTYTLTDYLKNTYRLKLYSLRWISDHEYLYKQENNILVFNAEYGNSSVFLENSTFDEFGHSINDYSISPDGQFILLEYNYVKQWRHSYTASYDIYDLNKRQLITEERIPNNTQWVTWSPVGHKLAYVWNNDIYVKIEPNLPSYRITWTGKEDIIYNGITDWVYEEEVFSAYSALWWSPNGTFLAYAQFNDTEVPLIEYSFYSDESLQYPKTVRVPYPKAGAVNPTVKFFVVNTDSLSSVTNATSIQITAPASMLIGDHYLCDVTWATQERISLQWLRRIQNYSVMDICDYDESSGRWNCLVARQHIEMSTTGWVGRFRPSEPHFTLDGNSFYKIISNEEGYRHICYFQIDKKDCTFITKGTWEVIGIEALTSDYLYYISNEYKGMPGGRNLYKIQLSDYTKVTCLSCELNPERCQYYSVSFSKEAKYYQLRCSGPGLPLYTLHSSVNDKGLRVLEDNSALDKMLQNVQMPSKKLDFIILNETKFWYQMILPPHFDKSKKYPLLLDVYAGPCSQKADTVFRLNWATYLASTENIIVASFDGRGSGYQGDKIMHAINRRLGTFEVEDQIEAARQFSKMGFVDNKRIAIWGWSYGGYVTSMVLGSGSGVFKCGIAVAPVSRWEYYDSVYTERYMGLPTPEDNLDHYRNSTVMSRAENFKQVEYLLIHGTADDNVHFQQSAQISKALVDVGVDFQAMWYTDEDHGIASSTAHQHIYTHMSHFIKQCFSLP
Kind of data set: DPP-IV inhibitor screening assay (commercial kit, Abcam). In kind it is biochemical. The settings on record: IC50 from DPP-IV inhibition rates, '-' = no IC50 given (only three peptides showed inhibitory effects against DPP-IV). The method, then:
Subsequently, the screening assay was conducted using a commercial kit (Abcam, Cambridge, UK) following the protocols provided by the manufacturer. The half-maximal inhibitory concentration (IC50) was determined through analysis of DPP-IV inhibition rates, applying the formula outlined in Equation (2):(2) DPP-IV inhibition rate (%) = [(ABlank − ASample)/ABlank] × 100 where A represents the absorbance value.

The next data set has as its system HepG2 cells. Kind of data set: HepG2 cell viability (CCK-8). Type of data set: cell-based, human. The settings on record: at certain concentrations within 100-400 μg/mL, 24 h, p < 0.05. The method, then:
HepG2 human hepatocellular carcinoma cells utilized in this study were generously provided by Prof. Fuliang Hu from Zhejiang University’s College of Animal Science (China). Cellular maintenance involved cultivation in HyClone’s high-glucose DMEM medium supplemented with 10% heat-inactivated fetal bovine serum (Gibco, Waltham, MA, USA) and antibiotic agents (100 U/mL penicillin plus 100 μg/mL streptomycin). Cellular propagation was conducted under standard culture conditions (37 °C, 5% CO2 humidified atmosphere), following established protocols.
To validate whether the bioactive peptides exert toxic effects on cells, the impact of peptide concentrations on cell viability should also be assessed. […] After the treatment period, 10 μL of CCK-8 solution was added, and these 96-well plates were gently shaken and incubated again at 37 °C under 5% CO2 for another 1 h. In the end, the calculation methodology for evaluating the cell viability of bioactive peptides is described in Equation (2) in Section 2.6 to assess the effects of bioactive peptides on cell viability. All blank groups were established using DMEM high-glucose medium devoid of insulin.

By IC50 is commonly meant the point on the concentration scale where inhibition reaches its midpoint. A lower IC50 goes with inhibition by little substance. On DPP-IV, `CC(C)C[C@H](NC(=O)[C@H](CC(=O)O)NC(=O)[C@H](Cc1ccccc1)NC(=O)[C@@H]1CCCN1C(=O)[C@H](CC(N)=O)NC(=O)[C@@H](N)Cc1ccccc1)C(=O)N[C@H](C(=O)N[C@@H](CCCCN)C(=O)O)[C@@H](C)O` [FK-8] (H-FNPFDLTK-OH) showed an IC50 greater than 10.2 mM.
Take `CC(C)C[C@H](NC(=O)[C@H](C)NC(=O)[C@H](CC(=O)O)NC(=O)[C@H](Cc1ccccc1)NC(=O)[C@@H]1CCCN1C(=O)[C@@H](N)CC(=O)O)C(=O)N1CCC[C@H]1C(=O)N[C@@H](CCCCN)C(=O)O` [DK-8] (H-DPFDALPK-OH): the “HepG2 cell viability versus blank group” value in the data set with HepG2 cells is “significantly higher than the blank group”.
With `NCCCC[C@H](NC(=O)[C@H](Cc1ccccc1)NC(=O)[C@@H]1CCCN1C(=O)[C@@H]1CCCN1C(=O)CNC(=O)[C@H](Cc1ccc(O)cc1)NC(=O)[C@@H](N)CC(=O)O)C(=O)O` [DK-7] (H-DYGPPFK-OH), on DPP-IV, the half-maximal inhibitory concentration (IC50) is greater than 12.2 mM.
With `CSCC[C@H](NC(=O)CN)C(=O)N[C@@H](CC(=O)O)C(=O)N[C@@H](Cc1ccccc1)C(=O)N[C@@H](CCC(N)=O)C(=O)N1CCC[C@H]1C(=O)N[C@@H](CCCNC(=N)N)C(=O)O` [GR-7] (H-GMDFQPR-OH), the “HepG2 cell viability versus blank group” value with HepG2 cells was “significantly higher than the blank group”.
`CC(C)C[C@H](NC(=O)[C@@H](N)CO)C(=O)N[C@@H](Cc1ccccc1)C(=O)N[C@@H](CC(C)C)C(=O)N1CCC[C@H]1C(=O)N[C@@H](CCCCN)C(=O)O` [SK-6] (H-SLFLPK-OH) gave a concentration for half-maximal inhibition (IC50) at DPP-IV greater than 14.2 mM. Also, the “HepG2 cell viability versus blank group” value in the data set with HepG2 cells is reported as “significantly higher than the blank group”.
